{"source": "ChEMBL document CHEMBL1201862", "about": "“PubChem BioAssay data set” (2004)", "key": {"[1]": {"target": "T1, Rac GTPase-activating protein 1 (Homo sapiens, UniProt Q9H0H5)", "T1 sequence (Q9H0H5 whole entry)": "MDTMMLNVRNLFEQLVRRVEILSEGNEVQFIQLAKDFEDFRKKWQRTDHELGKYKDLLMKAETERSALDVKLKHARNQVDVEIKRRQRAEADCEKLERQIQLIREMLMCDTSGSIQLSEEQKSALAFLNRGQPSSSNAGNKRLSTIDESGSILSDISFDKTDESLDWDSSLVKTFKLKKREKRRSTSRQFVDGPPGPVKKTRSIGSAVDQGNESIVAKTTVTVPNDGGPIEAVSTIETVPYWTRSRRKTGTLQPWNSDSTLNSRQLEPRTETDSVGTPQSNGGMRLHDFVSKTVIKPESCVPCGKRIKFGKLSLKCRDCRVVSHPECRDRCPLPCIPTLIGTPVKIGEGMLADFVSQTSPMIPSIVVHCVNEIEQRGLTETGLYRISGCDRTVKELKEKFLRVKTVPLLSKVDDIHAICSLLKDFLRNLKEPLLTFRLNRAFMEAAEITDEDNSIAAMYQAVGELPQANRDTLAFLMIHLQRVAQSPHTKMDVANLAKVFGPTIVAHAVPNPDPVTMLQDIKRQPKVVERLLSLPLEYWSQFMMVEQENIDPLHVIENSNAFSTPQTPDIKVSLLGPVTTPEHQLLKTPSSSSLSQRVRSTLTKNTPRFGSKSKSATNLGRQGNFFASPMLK", "test": "blockers of MgcRacGAP-driven Rac1 GTP hydrolysis – biochemical, ADP Hunter fluorescence, primary and confirmatory, confirmation (AID 624330)", "type": "functional"}, "Cytochrome P450 1A2": {"target": "T2, Cytochrome P450 1A2 (Homo sapiens, UniProt P05177)", "T2 sequence (P05177 whole entry)": "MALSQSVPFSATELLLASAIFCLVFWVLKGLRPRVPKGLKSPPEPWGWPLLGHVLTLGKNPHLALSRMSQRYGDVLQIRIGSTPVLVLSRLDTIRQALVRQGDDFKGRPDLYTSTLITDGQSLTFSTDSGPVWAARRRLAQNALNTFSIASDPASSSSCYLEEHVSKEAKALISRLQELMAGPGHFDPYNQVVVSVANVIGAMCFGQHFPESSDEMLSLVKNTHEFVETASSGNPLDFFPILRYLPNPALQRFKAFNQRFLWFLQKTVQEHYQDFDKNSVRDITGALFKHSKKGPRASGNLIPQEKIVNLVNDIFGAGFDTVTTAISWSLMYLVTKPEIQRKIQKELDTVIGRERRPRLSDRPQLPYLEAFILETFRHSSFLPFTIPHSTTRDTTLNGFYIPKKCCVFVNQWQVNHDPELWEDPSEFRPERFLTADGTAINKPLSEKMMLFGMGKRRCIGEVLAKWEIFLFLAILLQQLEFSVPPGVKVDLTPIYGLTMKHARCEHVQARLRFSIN"}, "[2]": {"test": "luciferase reporter signal suppression in cells – H4 neuroglioma cells, luminescence, dose response (AID 1990)", "type": "functional, cell-based"}, "[3]": {"test": "Luminescence Cell-Based Dose Response HTS to Identify Inhibitors of 5'UTR Stem-Loop Driven Prion Protein mRNA Translation in H4 Neuroglioblastoma Cells. [Related pubchem assays: 1827 (Project Summary), 1813 (Primary HTS)]", "type": "functional"}, "[4]": {"test": "alpha-synuclein stem-loop luciferase translation blockers – H4 neuroglioma cells, luminescence, confirmation (AID 1988)", "type": "functional, cell-based"}, "Cytochrome P450 2C19": {"target": "Cytochrome P450 2C19 (Homo sapiens, UniProt P33261)", "sequence (P33261 whole entry)": "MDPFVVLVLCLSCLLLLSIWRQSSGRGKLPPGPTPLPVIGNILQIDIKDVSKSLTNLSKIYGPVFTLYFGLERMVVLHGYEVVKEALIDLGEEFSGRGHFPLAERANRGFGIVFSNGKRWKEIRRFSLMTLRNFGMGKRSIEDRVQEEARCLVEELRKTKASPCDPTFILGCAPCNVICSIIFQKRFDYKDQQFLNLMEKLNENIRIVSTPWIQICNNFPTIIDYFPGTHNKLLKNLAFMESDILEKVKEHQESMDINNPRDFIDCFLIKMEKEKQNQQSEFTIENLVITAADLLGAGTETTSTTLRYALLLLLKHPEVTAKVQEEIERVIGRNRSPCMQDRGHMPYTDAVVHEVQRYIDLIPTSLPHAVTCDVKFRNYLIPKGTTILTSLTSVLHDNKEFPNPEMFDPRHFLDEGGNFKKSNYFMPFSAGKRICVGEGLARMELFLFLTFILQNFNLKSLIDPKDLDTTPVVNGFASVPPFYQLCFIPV", "test": "Cytochrome panel assay with activity outcomes. Panel member name: p450-cyp2c19 Compounds with AC50 equal or less than 10 uM are considered active", "type": "functional"}, "H4": {"tested_on": "H4", "test": "Luminescence Cell-Based Dose Response HTS to Identify Activators of 5'UTR Stem-Loop Driven Prion Protein mRNA Translation in H4 Neuroglioblastoma Cells. [Related pubchem assays: 1829 (Project Summary), 1814 (Primary HTS)]", "type": "functional", "conditions": "Homo sapiens"}}, "note": "Activity calls are given as the source filed them.", "data": [{"smiles": "CCCCN(C)CCNC(=O)CSCc1ccc(C)cc1", "values": [{"measurement": "IC50", "setting": "[1]", "value": "220 µM (active)"}]}, {"smiles": "CN(Cc1ccccc1)C(=O)CC(c1ccccc1)c1cc(Cl)ccc1O", "note": "(stereo not drawn)", "values": [{"measurement": "AC50", "setting": "Cytochrome P450 1A2", "value": "25.1 µM (inconclusive)"}]}, {"smiles": "COc1cccc(CN2CCN(Cc3cccc(F)c3)CC2)c1", "values": [{"measurement": "IC50", "setting": "[1]", "value": "86 µM (active)"}]}, {"smiles": "CCOC(=O)c1oc2cc(OC(C)=O)ccc2c(=O)c1-c1ccc(OC)c(OC)c1", "values": [{"measurement": "EC50", "setting": "[2]", "value": "> 120 µM (not active)"}, {"measurement": "EC50", "setting": "[3]", "value": "> 120 µM (not active)"}, {"measurement": "EC50", "setting": "[4]", "value": "> 120 µM (not active)"}]}, {"smiles": "Oc1nc(N2CCCCCC2)nc(N2CCCCCC2)n1", "values": [{"measurement": "AC50", "setting": "Cytochrome P450 2C19; read-out: AC50", "value": "5.62 µM (inconclusive)"}, {"measurement": "AC50", "setting": "Cytochrome P450 1A2", "value": "22.4 µM (inconclusive)"}]}, {"smiles": "CCc1ccc(/C=C2/C(=O)N(c3ccccc3)C(=S)N2CC(=O)OC)s1", "values": [{"measurement": "EC50", "setting": "[2]", "value": "> 120 µM (not active)"}, {"measurement": "EC50", "setting": "[3]", "value": "11.2 µM (active)"}, {"measurement": "EC50", "setting": "[4]", "value": "14.4 µM (active)"}]}, {"smiles": "O=C(Nc1ccccc1)c1cc([N+](=O)[O-])ccc1NC1CCCCC1", "values": [{"measurement": "EC50", "setting": "[2]", "value": "16.4 µM (active)"}, {"measurement": "EC50", "setting": "[3]", "value": "> 120 µM (not active)"}, {"measurement": "EC50", "setting": "[4]", "value": "> 120 µM (not active)"}]}, {"smiles": "NS(=O)(=O)c1nc(S(=O)(=O)O)c2[nH]cnc2n1", "values": [{"measurement": "AC50", "setting": "Cytochrome P450 2C19", "value": "inconclusive"}, {"measurement": "AC50", "setting": "Cytochrome P450 1A2", "value": "5.01 µM (inconclusive)"}]}, {"smiles": "CCC/C=C(\\CCC)C(NP(=O)(c1ccccc1)c1ccccc1)c1ccc(-c2ccccc2)cc1", "note": "(stereo not drawn)", "values": [{"measurement": "AC50", "setting": "Cytochrome P450 1A2", "value": "2.51 µM (inconclusive)"}]}, {"smiles": "COc1ccccc1/C=C(/C(=O)OCC(=O)Nc1ccc(N(C)C)cc1)c1ccccc1", "values": [{"measurement": "IC50", "setting": "[1]", "value": "61 µM (active)"}]}, {"smiles": "CN(C)S(=O)(=O)c1ccc(Cl)c(NC(=O)COC(=O)CN2C(=O)C3CCCCC3C2=O)c1", "note": "(stereo not drawn)", "values": [{"measurement": "EC50", "setting": "[2]", "value": "> 120 µM (not active)"}, {"measurement": "EC50", "setting": "[3]", "value": "> 120 µM (not active)"}, {"measurement": "EC50", "setting": "[4]", "value": "> 120 µM (not active)"}]}, {"smiles": "COc1ccc(C2CC(c3ccc4ccccc4c3)=NN2C(=O)COC(=O)C2CCC(=O)N2)cc1", "note": "(stereo not drawn)", "values": [{"measurement": "EC50", "setting": "H4", "value": "66.5 µM (active)"}]}, {"smiles": "Fc1ccccc1Nc1nnc(S)s1", "values": [{"measurement": "IC50", "setting": "[1]", "value": "54.3 µM (active)"}]}, {"smiles": "ClC1(Cl)CC1Cn1c(C2CC2)nc2ccccc21", "note": "(stereo not drawn)", "values": [{"measurement": "EC50", "setting": "[2]", "value": "> 120 µM (not active)"}, {"measurement": "EC50", "setting": "[3]", "value": "> 120 µM (not active)"}, {"measurement": "EC50", "setting": "[4]", "value": "> 120 µM (not active)"}]}, {"smiles": "COc1ccccc1N1CCN(Cc2cccc(Br)c2)CC1", "values": [{"measurement": "IC50", "setting": "[1]", "value": "130 µM (active)"}]}, {"smiles": "COc1ccc(/C=C(/C(=O)Nc2ccccc2C(=O)NC(C)C)c2ccccc2)cc1", "values": [{"measurement": "EC50", "setting": "[2]", "value": "13.7 µM (active)"}, {"measurement": "EC50", "setting": "[3]", "value": "83.5 µM (active)"}, {"measurement": "EC50", "setting": "[4]", "value": "30.2 µM (active)"}]}, {"smiles": "COc1ccc(NC2CCCN(C(=O)c3ccccc3C(F)(F)F)C2)cc1", "note": "(stereo not drawn)", "values": [{"measurement": "IC50", "setting": "[1]", "value": "75.2 µM (active)"}]}, {"smiles": "CCOC(=O)c1c(C)[nH]c(C)c1C(=O)CSc1nc2ccccc2c(=O)n1-c1ccc(C)cc1", "values": [{"measurement": "EC50", "setting": "[2]", "value": "13.4 µM (active)"}, {"measurement": "EC50", "setting": "[3]", "value": "> 120 µM (not active)"}, {"measurement": "EC50", "setting": "[4]", "value": "> 120 µM (not active)"}]}, {"smiles": "CCN=C(S)Nc1cc(Cl)ccc1Oc1ccccc1", "values": [{"measurement": "EC50", "setting": "[2]", "value": "> 120 µM (not active)"}, {"measurement": "EC50", "setting": "[3]", "value": "> 120 µM (not active)"}, {"measurement": "EC50", "setting": "[4]", "value": "> 120 µM (not active)"}]}, {"smiles": "CC(=O)NN1C(=O)/C(=C\\c2ccc(O)cc2)SC1=S", "values": [{"measurement": "IC50", "setting": "[1]", "value": "121 µM (active)"}]}, {"smiles": "COc1cc(N=Nc2ccc(C(=O)N(C)C)cc2)c(C)cc1N", "values": [{"measurement": "IC50", "setting": "[1]", "value": "52.9 µM (active)"}]}, {"smiles": "COc1ccc(C(=O)/C=C/c2ccc(O)cc2)c2c1CC(O)C(C)(C)O2", "note": "(stereo not drawn)", "values": [{"measurement": "IC50", "setting": "[1]", "value": "56.9 µM (active)"}]}, {"smiles": "COc1ccc(N2CCN(C(=O)c3ccc(C[S+]([O-])c4cccc(Cl)c4)o3)CC2)cc1", "note": "(stereo not drawn)", "values": [{"measurement": "IC50", "setting": "[1]", "value": "326 µM (active)"}]}, {"smiles": "Cc1cc(O)c(C)c(O)c1/C=N/NC(=O)c1cccnc1", "values": [{"measurement": "IC50", "setting": "[1]", "value": "101 µM (active)"}]}, {"smiles": "COc1cc(/C(C)=N/NC(=O)C(O)(c2ccccc2)c2ccccc2)ccc1O", "values": [{"measurement": "IC50", "setting": "[1]", "value": "104 µM (active)"}]}]}
